The text below walks through data of patent US12577242B2, “Pyrrolopyridine and imidazopyridine antiviral compounds” (KATHOLIEKE UNIVERSITEIT LEUVEN, priority 2020, dated 2026).

In general, CC50 refers to the concentration that lowers cell viability or growth by half. Low values mean harm at low concentration, high ones better tolerance by the cells. Broadly, the EC50 is the concentration at which the effect is half-maximal.

The nature of data set [1]: Cytotoxicity in MDBK cells (no BVD virus added). As to conditions: bovine, MDBK cells (Madin-Darby bovine kidney), no virus added.
The subject of data set [2] is Bovine viral diarrhea (BVD) virus. Nature of the data set: Anti-BVDV CPE inhibition assay in MDBK cells. The following applies: for EC50: Bovine viral diarrhea virus isolates and strains, MDBK, in Bos taurus, 96 h; for SI (selectivity index, ratio of CC50 and EC50): CC50/EC50, MDBK cells, BVD virus.

The compound `COc1ncccc1-c1cc2ccn(Cc3nc4ccc(C)cc4s3)cc-2n1` [Compound XIV, 2-{[2-(2-methoxypyridin-3-yl)-6H-pyrrolo[2,3-c]pyridin-6-yl]methyl}-6-methyl-1,3-benzothiazole] yielded a CC50 at 4 days in data set [1] of 4000 nM. In data set [2], the EC50 stood at 17 nM; the “SI (selectivity index, ratio of CC50 and EC50)” value came out at 235.
In data set [1], `OCCOc1ccc(F)c(-c2cc3cn(Cn4nnc5ccccc54)ccc-3n2)c1` [Compound XIX, 2-(3-{5-[(1H-benzotriazol-1-yl)methyl]-5H-pyrrolo[3,2-c]pyridin-2-yl}-4-fluorophenoxy)ethan-1-ol] showed a CC50 at 4 days greater than 50000 nM. Further, in data set [2], the response was half-maximal at 97 ± 15 nM (EC50); the “SI (selectivity index, ratio of CC50 and EC50)” value is on record as greater than 515.
Compound `Cc1ccc2nc(Cn3ccc4cc(-c5cnn(C)c5C)nc-4c3)sc2c1` [Compound XV, 2-{[2-(1,5-dimethyl-1H-pyrazol-4-yl)-6H-pyrrolo[2,3-c]pyridin-6-yl]methyl}-6-methyl-1,3-benzothiazole] gave a CC50 at 4 days in data set [1] of 17000 nM. For the same compound, in data set [2], a half-maximal response (EC50) required 16 ± 1 nM; the “SI (selectivity index, ratio of CC50 and EC50)” value turned out to be 1063.
Compound `Cc1ccc2nc(Cn3ccc4cc(-c5ccccc5CO)nc-4c3)[nH]c2c1` [Compound XVI, (2-(6-((6-methyl-1H-benzoimidazol-2-yl)methyl)-6H-pyrrolo[2,3-c]pyridin-2-yl)phenyl)methanol] displayed a CC50 at 4 days in data set [1] of 22000 nM. Further, in data set [2], the EC50 is 294 ± 70 nM; the “SI (selectivity index, ratio of CC50 and EC50)” value is 75.
For the compound `Fc1ccccc1-c1cc2cn(Cn3nnc4ccccc43)ccc-2n1` [Compound XVII, 1-{[2-(2-fluorophenyl)-5H-pyrrolo[3,2-c]pyridin-5-yl]methyl}-1H-benzotriazole], the CC50 at 4 days in data set [1] was determined as 19000 nM. For the same compound, in data set [2], the EC50 turned out to be 12 ± 6 nM; the “SI (selectivity index, ratio of CC50 and EC50)” value stood at 1583.
In the same order, the values of `Fc1ccc(OC(F)(F)F)cc1-c1cc2cn(Cn3nnc4ccccc43)ccc-2n1` [Compound XVIII, 1-({2-[2-fluoro-5-(trifluoromethoxy)phenyl]-5H-pyrrolo[3,2-c]pyridin-5-yl}methyl)-1H-benzotriazole] are 12000 nM, 76 ± 19 nM and 158.
The compound `COc1ccccc1-c1cc2cn(Cn3nnc4ccccc43)ccc-2n1` [Compound XX, 1-{[2-(2-methoxyphenyl)-5H-pyrrolo[3,2-c]pyridin-5-yl]methyl}-1H-benzotriazole] displayed a CC50 at 4 days in data set [1] of 39000 nM. In addition, in data set [2], a half-maximal effect (EC50) was put at 82 nM; the “SI (selectivity index, ratio of CC50 and EC50)” value was 476.
In data set [1], `OCc1ccccc1-c1cc2cn(Cn3nnc4ccccc43)ccc-2n1` [Compound XXI, (2-(5-((1H-Benzotriazol-1-yl)methyl)-5H-pyrrolo[3,2-c]pyridin-2-yl)phenyl)methanol] had a CC50 at 4 days greater than 50000 nM. Besides, in data set [2], the midpoint of the response, the EC50, lay at 387 ± 22 nM; the “SI (selectivity index, ratio of CC50 and EC50)” value is greater than 129.
`N#Cc1ccc(-c2cc3cn(Cn4nnc5ccccc54)ccc-3n2)cc1` [Compound XXII, 4-{5-[(1H-benzotriazol-1-yl)methyl]-5H-pyrrolo[3,2-c]pyridin-2-yl}benzonitrile]: it took 21000 nM to reach half-maximal cytotoxicity in data set [1] (CC50 at 4 days). In addition, in data set [2], the EC50 came out at 7 ± 5 nM; the “SI (selectivity index, ratio of CC50 and EC50)” value is reported as 3000.
`COc1ncccc1-c1cc2cn(Cn3nnc4ccccc43)ccc-2n1` [Compound XXIII, 1-((2-(2-methoxypyridin-3-yl)-5H-pyrrolo[3,2-c]pyridin-5-yl)methyl)-1H-benzotriazole] yielded a CC50 at 4 days in data set [1] of 32000 nM. In data set [2], the response was half-maximal at 82 nM (EC50); the “SI (selectivity index, ratio of CC50 and EC50)” value was determined as 390.
With `Cc1c(-c2cc3cn(Cn4nnc5ccccc54)ccc-3n2)cnn1C` [Compound XXIV, 1-((2-(1,5-dimethyl-1H-pyrazol-4-yl)-5H-pyrrolo[3,2-c]pyridin-5-yl)methyl)-1H-benzotriazole], the CC50 at 4 days in data set [1] stood at 12000 nM. Also, in data set [2], the EC50 amounted to 76 ± 19 nM; the “SI (selectivity index, ratio of CC50 and EC50)” value is reported as 158.
On to `Cc1ccc2nc(Cn3ccc4nc(-c5cc(OCCO)ccc5F)cc-4c3)sc2c1` [Compound XXIX, 2-(4-fluoro-3-(5-((6-methyl-1,3-benzothiazol-2-yl)methyl)-5H-pyrrolo[3,2-c]pyridin-2-yl)phenoxy)ethan-1-ol], for which the CC50 at 4 days in data set [1] is 16000 nM. Moreover, in data set [2], the EC50 stood at 37 ± 30 nM; the “SI (selectivity index, ratio of CC50 and EC50)” value is 432.
The compound `Cc1ccc2oc(Cn3ccc4nc(-c5ccccc5F)cc-4c3)nc2c1` [Compound XXV, 2-{[2-(2-fluorophenyl)-5H-pyrrolo[3,2-c]pyridin-5-yl]methyl}-5-methyl-1,3-benzoxazole] came in with a CC50 at 4 days in data set [1] of 7000 nM. Besides, in data set [2], it took 4 ± 2 nM to reach a half-maximal effect (EC50); the “SI (selectivity index, ratio of CC50 and EC50)” value was 1750.
On to `Cc1ccc2oc(Cn3ccc4nc(-c5ccccc5CO)cc-4c3)nc2c1` [Compound XXVI, (2-(5-((5-methyl-1,3-benzoxazol-2-yl)methyl)-5H-pyrrolo[3,2-c]pyridin-2-yl)phenyl)methanol], for which the CC50 at 4 days in data set [1] amounted to 22000 nM. In data set [2], it took 311 ± 78 nM to reach a half-maximal effect (EC50); the “SI (selectivity index, ratio of CC50 and EC50)” value was determined as 71.
Regarding `COc1ncccc1-c1cc2cn(Cc3nc4cc(C)ccc4o3)ccc-2n1` [Compound XXVII, 2-((2-(2-methoxypyridin-3-yl)-5H-pyrrolo[3,2-c]pyridin-5-yl)methyl)-5-methyl-1,3-benzoxazole], half-maximal cytotoxicity in data set [1] (CC50 at 4 days) was put at 21000 nM. In addition, in data set [2], the EC50 worked out at 16 ± 1 nM; the “SI (selectivity index, ratio of CC50 and EC50)” value turned out to be 1313.
In the case of `Cc1ccc2nc(Cn3ccc4nc(-c5ccccc5F)cc-4c3)sc2c1` [Compound XXVIII, 2-{[2-(2-fluorophenyl)-5H-pyrrolo[3,2-c]pyridin-5-yl]methyl}-6-methyl-1,3-benzothiazole], in data set [1], it took 3000 nM to reach half-maximal cytotoxicity (CC50 at 4 days). Besides, in data set [2], the EC50 is 16 nM; the “SI (selectivity index, ratio of CC50 and EC50)” value is 188.
Compound `Cc1ccc2nc(Cn3ccc4nc(-c5ccccc5CO)cc-4c3)sc2c1` [Compound XXX, (2-{5-[(6-methyl-1,3-benzothiazol-2-yl)methyl]-5H-pyrrolo[3,2-c]pyridin-2-yl}phenyl)methanol] yielded a CC50 at 4 days in data set [1] of 20000 nM. Further, in data set [2], a half-maximal effect (EC50) was put at 19 ± 7 nM; the “SI (selectivity index, ratio of CC50 and EC50)” value was 1053.
Consider `COc1ncccc1-c1cc2cn(Cc3nc4ccc(C)cc4s3)ccc-2n1` [Compound XXXI, 2-{[2-(2-methoxypyridin-3-yl)-5H-pyrrolo[3,2-c]pyridin-5-yl]methyl}-6-methyl-1,3-benzothiazole], for which the CC50 at 4 days in data set [1] stood at 10000 nM. In data set [2], the EC50 was 6 ± 6 nM; the “SI (selectivity index, ratio of CC50 and EC50)” value was found to be 1667.
`Cc1ccc2nc(Cn3ccc4nc(-c5cnn(C)c5C)cc-4c3)sc2c1` [Compound XXXII, 2-{[2-(1,5-dimethyl-1H-pyrazol-4-yl)-5H-pyrrolo[3,2-c]pyridin-5-yl]methyl}-6-methyl-1,3-benzothiazole] had a CC50 at 4 days in data set [1] of 21000 nM. Also, in data set [2], the midpoint of the response, the EC50, lay at 12 ± 8 nM; the “SI (selectivity index, ratio of CC50 and EC50)” value is given as 1750.
As to `COc1ncccc1-c1cc2cn(Cc3nc4ccc(C)cc4[nH]3)ccc-2n1` [Compound XXXIV, 2-((2-(2-methoxypyridin-3-yl)-5H-pyrrolo[3,2-c]pyridin-5-yl)methyl)-6-methyl-1H-benzoimidazole], in data set [1], the CC50 at 4 days is greater than 50000 nM. Besides, in data set [2], the EC50 worked out at 395 ± 20 nM; the “SI (selectivity index, ratio of CC50 and EC50)” value was greater than 127.
